This is an account of results in paper PMC8611036, “An integrated method for optimized identification of effective natural inhibitors against SARS-CoV-2 3CLpro” (Scientific Reports, 2021).

Non-standard residues stand in square brackets, D forms with d. Residues, ends and D or L forms follow the SMILES beside them. 2Thi = N[C@@H](Cc1cccs1)C(=O)O

The experiment relates to SARS-CoV 3CLpro. The experiment is classed as biochemical. The following applies: activity class by pIC50 threshold 6.

As for `O=[N+]([O-])c1cc(C(F)(F)F)ccc1S(=O)(=O)c1ccc(Cl)cc1` [CMP287], the “Inact.(<6)/Act.(>=6)” value is listed as “Inact. (Inact.(<6))”.

Consider `Cc1nnc(SSc2ccccc2[N+](=O)[O-])o1` [CMP273], for which the “Inact.(<6)/Act.(>=6)” value is on record as “Inact. (Inact.(<6))”. Turning to `O=[N+]([O-])c1ccccc1SSc1ncccn1` [CMP270], the “Inact.(<6)/Act.(>=6)” value is “Act. (Act.(>=6))”. Regarding `CC(C)(C)NC(=O)C(c1cnccn1)N(C(=O)c1ccco1)c1ccc(C(C)(C)C)cc1` (stereo not drawn) [CMP204], the “Inact.(<6)/Act.(>=6)” value is given as “Inact. (Inact.(<6))”. With `Cc1ccc(C(=O)N/C(=C\c2ccc(-c3ccccc3[N+](=O)[O-])o2)C(=O)NCCCN(C)C)cc1` [CMP284], the “Inact.(<6)/Act.(>=6)” value is “Inact. (Inact.(<6))”.

Consider `O=C(Oc1cncc(Br)c1)c1cccs1` [CMP232], for which the “Inact.(<6)/Act.(>=6)” value is “Act. (Act.(>=6))”. With `O=C[C@H](Cc1c[nH]cn1)NC[C@@H]1C[C@H]2CCCC[C@@H]2CN1C(=O)c1ccc(F)cc1` [CMP258], the “Inact.(<6)/Act.(>=6)” value is “Inact. (Inact.(<6))”. In the case of `COc1ncc(-c2ccc(N(Cc3ccsc3)C(=O)Cn3nnc4ccccc43)cc2)cn1` [CMP222], the “Inact.(<6)/Act.(>=6)” value is listed as “Inact. (Inact.(<6))”. For `O=C(Cn1nnc2ccccc21)N(Cc1ccsc1)c1ccc(NCc2ccccc2)cc1` [CMP221], the “Inact.(<6)/Act.(>=6)” value was “Inact. (Inact.(<6))”. Turning to `Cc1csc(SSc2ccccc2[N+](=O)[O-])n1` [CMP267], the “Inact.(<6)/Act.(>=6)” value is “Inact. (Inact.(<6))”.

For the compound `CC(C)(C)NC(=O)C(c1cccnc1)N(C(=O)C1=NC=NC1)c1ccc(C(C)(C)C)cc1` (stereo not drawn) [CMP234], the “Inact.(<6)/Act.(>=6)” value is “Inact. (Inact.(<6))”. For `COC(=O)/C=C/[C@H](C[C@@H]1CCNC1=O)NC(=O)[C@H](CC(C)C)NC(=O)[C@@H](NC(=O)OCc1ccccc1)C(C)C` [CMP253], the “Inact.(<6)/Act.(>=6)” value is on record as “Inact. (Inact.(<6))”. Regarding `O=C[C@H](Cc1c[nH]cn1)NC[C@@H]1C[C@H]2CCCC[C@@H]2CN1C(=O)c1cccc(-c2ccccc2)c1` [CMP260], the “Inact.(<6)/Act.(>=6)” value was “Inact. (Inact.(<6))”. On to `O=c1c(O)c(-c2ccc(O)c(O)c2)oc2cc(O)cc(O)c12` [CMP151], for which the “Inact.(<6)/Act.(>=6)” value is given as “Inact. (Inact.(<6))”. `O=[N+]([O-])c1ccccc1SSc1nccs1` [CMP266]: the “Inact.(<6)/Act.(>=6)” value is given as “Inact. (Inact.(<6))”. In the case of `Cn1cnc(C(=O)N(c2ccc(C(C)(C)C)cc2)C(C(=O)NC(C)(C)C)c2cccnc2)c1` (stereo not drawn) [CMP206], the “Inact.(<6)/Act.(>=6)” value is “Inact. (Inact.(<6))”. Consider `Cc1cc(C)nc(SSc2ccccc2[N+](=O)[O-])n1` [CMP274], for which the “Inact.(<6)/Act.(>=6)” value was “Act. (Act.(>=6))”. Under `COc1cccc(C(=O)Oc2cncc(Cl)c2)c1` [CMP171] stands “Act. (Act.(>=6))”.

Regarding `CC(=O)Oc1cc2c(cc1C(C)C)CC[C@H]1[C@](C)(CO)CCC[C@]21C` [CMP207], the “Inact.(<6)/Act.(>=6)” value is listed as “Inact. (Inact.(<6))”. As to `CC(C)c1cc2c(cc1O)[C@@]1(C)CC[C@H](O)C(C)(C)[C@@H]1CC2` [CMP163], the “Inact.(<6)/Act.(>=6)” value was “Inact. (Inact.(<6))”. As for `C=C(CCSc1ccccc1NC(=O)/C=C/c1ccccc1)OC` [CMP107], the “Inact.(<6)/Act.(>=6)” value was “Inact. (Inact.(<6))”. On to `CC1CCN(S(=O)(=O)c2ccc3c(c2)C(=O)C(=O)N3C)CC1` [CMP247], for which the “Inact.(<6)/Act.(>=6)” value is reported as “Inact. (Inact.(<6))”. As to `Cc1nc(C)c(C(=O)C2=C(O)C(=O)N(CCCN3CCOCC3)C2c2cccc([N+](=O)[O-])c2)s1` (stereo not drawn) [CMP289], the “Inact.(<6)/Act.(>=6)” value is on record as “Inact. (Inact.(<6))”. As for `COc1ccc(-c2cc(=O)c3c(O)cc(O)cc3o2)cc1-c1c(O)cc(O)c2c(=O)cc(-c3ccc(O)cc3)oc12` [CMP157], the “Inact.(<6)/Act.(>=6)” value is given as “Inact. (Inact.(<6))”. Under `O=C[C@H](Cc1c[nH]cn1)NC[C@@H]1C[C@H]2CCCC[C@@H]2CN1C(=O)c1ccccc1-c1ccccc1` [CMP261] stands “Inact. (Inact.(<6))”. Under `CC1CCCCN1S(=O)(=O)c1ccc2c(c1)C(=O)C(=O)N2` (stereo not drawn) [CMP240] stands “Inact. (Inact.(<6))”; under `O=C[C@H](Cc1c[nH]cn1)NC[C@H]1C[C@@H]2CCCC[C@H]2CN1C(=O)c1ccc(Br)cc1` [CMP263], “Inact. (Inact.(<6))”. As for `C=C(Cc1cccc(C)c1)C1=CC=C(c2ccc(C)cc2)C1` [CMP233], the “Inact.(<6)/Act.(>=6)” value is listed as “Inact. (Inact.(<6))”.

Take `COCCC(=O)Nc1ccc(N(C(=O)Cn2nnc3ccccc32)C(C)c2ccsc2)cc1` (stereo not drawn) [CMP252]: the “Inact.(<6)/Act.(>=6)” value is on record as “Inact. (Inact.(<6))”. On to `CN1C(=O)C(=O)c2cc(S(=O)(=O)N3CCN(c4ccccn4)CC3)ccc21` [CMP245], for which the “Inact.(<6)/Act.(>=6)” value was “Inact. (Inact.(<6))”. Next, `CC(=O)n1nc(SSc2ccccc2[N+](=O)[O-])nc1-c1cccnc1` [CMP272]: “Inact. (Inact.(<6))”; `CCOC(=O)c1ccccc1SSc1nc(C(=O)OC)c(C)[nH]1` [CMP264]: “Inact. (Inact.(<6))”. `CC(C)C[C@H](NC(=O)[C@@H](NC(=O)[C@H](C)NC(=O)OCc1ccccc1)C(C)C)C(=O)N[C@H](C#N)CCC(N)=O` [CMP230]: the “Inact.(<6)/Act.(>=6)” value was “Inact. (Inact.(<6))”.

With `O=C1Nc2ccc(S(=O)(=O)N3CCN(C(=O)c4ccco4)CC3)cc2C1=O` [CMP238], the “Inact.(<6)/Act.(>=6)” value is on record as “Inact. (Inact.(<6))”. Turning to `CC(C)C[C@H](NC(=O)[C@@H](NC(=O)[C@H](C)NC(=O)[C@H](CO)NC(=O)[C@@H](NC(=O)OCc1ccccc1)[C@@H](C)O)C(C)C)C(=O)N[C@H](C#N)CCC(N)=O` [CMP231] (HELM PEPTIDE1{[O=C(OCc1ccccc1)[*:2]].T.S.A.V.L.[N#C[C@H](CCC(N)=O)N[*:1]]}$$$$V2.0), the “Inact.(<6)/Act.(>=6)” value was “Inact. (Inact.(<6))”. Turning to `O=C(Oc1cncc(Cl)c1)c1ccc(-c2cccc([N+](=O)[O-])c2)o1` [CMP278], the “Inact.(<6)/Act.(>=6)” value is reported as “Act. (Act.(>=6))”. Next, `O=C(Sc1nnc(C(F)(F)F)[nH]1)c1ccc(C#Cc2ccccc2)o1` [CMP143]: “Inact. (Inact.(<6))”; `Cc1ccc(C(=O)N/C(=C\c2ccc(-c3cccc([N+](=O)[O-])c3)o2)C(=O)NCCCN(C)C)cc1` [CMP283]: “Inact. (Inact.(<6))”.

Consider `CC1CCN(S(=O)(=O)c2ccc3c(c2)C(=O)C(=O)N3Cc2ccccc2)CC1` [CMP248], for which the “Inact.(<6)/Act.(>=6)” value is recorded as “Inact. (Inact.(<6))”. Take `COC(=O)c1nc(SSc2ccc(Cl)cc2)[nH]c1C` [CMP268]: the “Inact.(<6)/Act.(>=6)” value was “Inact. (Inact.(<6))”. Consider `O=C(Nc1ccc(N(Cc2ccsc2)C(=O)Cn2nnc3ccccc32)cc1)C1CC1` [CMP195], for which the “Inact.(<6)/Act.(>=6)” value is listed as “Inact. (Inact.(<6))”. Take `CCC(C)(C)NC(=O)[C@@H](c1ccn(C)c1)N(C(=O)Cn1nnc2ccccc21)c1ccc(NC(C)=O)cc1` [CMP254]: the “Inact.(<6)/Act.(>=6)” value is recorded as “Inact. (Inact.(<6))”.

On to `CC(=O)N[C@@H](CO)C(=O)N[C@@H](C)C(=O)N[C@H](C(=O)N[C@@H](CC(C)C)C(=O)N[C@H](C=O)Cc1cccs1)C(C)C` [CMP216] (Ac-SAVL[2Thi]-aldehyde), for which the “Inact.(<6)/Act.(>=6)” value is given as “Inact. (Inact.(<6))”. Next, `COC(=O)c1ccccc1SSc1nc(C(=O)OC)c(C)[nH]1` [CMP265]: “Inact. (Inact.(<6))”; `O=C[C@H](Cc1cnc[nH]1)NC[C@@H]1C[C@H]2CCCC[C@@H]2CN1C(=O)c1ccc(-c2ccccc2)cc1` [CMP259]: “Inact. (Inact.(<6))”; `O=C1Nc2ccc(S(=O)(=O)N3CCN(c4ccccn4)CC3)cc2C1=O` [CMP239]: “Inact. (Inact.(<6))”. Regarding `CC(=O)Nc1ccc(N(C(=O)Cn2cc(-c3ccccc3)nn2)C(C(=O)NC(C)(C)C)c2ccsc2)cc1` (stereo not drawn) [CMP210], the “Inact.(<6)/Act.(>=6)” value was “Inact. (Inact.(<6))”. Turning to `CC(C)C(=O)Nc1ccc(N(Cc2ccsc2)C(=O)Cn2nnc3ccccc32)cc1` [CMP198], the “Inact.(<6)/Act.(>=6)” value is recorded as “Inact. (Inact.(<6))”. In the case of `O=C1C(=O)N(Cc2ccc3ccccc3c2)c2ccc(S(=O)(=O)N3CCOCC3)cc21` [CMP246], the “Inact.(<6)/Act.(>=6)” value is “Inact. (Inact.(<6))”.

Turning to `O=C1Nc2ccc(S(=O)(=O)N3CCN(CCc4ccccc4)CC3)cc2C1=O` [CMP237], the “Inact.(<6)/Act.(>=6)” value was “Inact. (Inact.(<6))”. As for `O=C1NN(c2ccc(Cl)c(Cl)c2)C(=O)/C1=C\c1ccc(-c2ccc(Br)cc2C(=O)O)o1` [CMP104], the “Inact.(<6)/Act.(>=6)” value is reported as “Inact. (Inact.(<6))”. Under `O=C(Oc1cncc(Cl)c1)c1ccc(-c2ccc(Cl)cc2[N+](=O)[O-])o1` [CMP280] stands “Act. (Act.(>=6))”; under `Cc1coc2c1C(=O)C(=O)c1c-2ccc2c(C)cccc12` [CMP127], “Inact. (Inact.(<6))”.

Turning to `CN1CCN(S(=O)(=O)c2ccc3c(c2)C(=O)C(=O)N3C)CC1` [CMP241], the “Inact.(<6)/Act.(>=6)” value is reported as “Inact. (Inact.(<6))”. As for `CCC(=O)Nc1ccc(N(Cc2ccsc2)C(=O)Cn2nnc3ccccc32)cc1` [CMP220], the “Inact.(<6)/Act.(>=6)” value is given as “Inact. (Inact.(<6))”. As for `CC1CCN(S(=O)(=O)c2ccc3c(c2)C(=O)C(=O)N3Cc2ccc3ccccc3c2)CC1` [CMP249], the “Inact.(<6)/Act.(>=6)” value is “Inact. (Inact.(<6))”. Under `CN1CCN(S(=O)(=O)c2ccc3c(c2)C(=O)C(=O)N3)CC1` [CMP227] stands “Inact. (Inact.(<6))”; under `O=C(Oc1cncc(Cl)c1)c1ccc(-c2ccc([N+](=O)[O-])cc2)o1` [CMP282], “Act. (Act.(>=6))”. Under `COc1ccc2c(c1)CCC1C2=NN(C(C)=O)C1c1cccc(I)c1` (stereo not drawn) [CMP116] stands “Inact. (Inact.(<6))”; under `CC(C)(C)NC(=O)C(c1cccnc1)N(C(=O)c1cnco1)c1ccc(C(C)(C)C)cc1` (stereo not drawn) [CMP188], “Inact. (Inact.(<6))”. In the case of `CC1CC(C)CN(S(=O)(=O)c2ccc3c(c2)C(=O)C(=O)N3C)C1` (stereo not drawn) [CMP250], the “Inact.(<6)/Act.(>=6)” value is given as “Inact. (Inact.(<6))”. Take `CC1CC(C)CN(S(=O)(=O)c2ccc3c(c2)C(=O)C(=O)N3)C1` (stereo not drawn) [CMP255]: the “Inact.(<6)/Act.(>=6)” value is on record as “Inact. (Inact.(<6))”. For `CC(=O)Nc1cnc(SSc2ccc(Br)cc2)s1` [CMP23, reference compound], the “Inact.(<6)/Act.(>=6)” value is “Inact. (Inact.(<6))”. For the compound `COC(=O)c1nc(SSc2ccccc2[N+](=O)[O-])[nH]c1C` [CMP269], the “Inact.(<6)/Act.(>=6)” value is on record as “Inact. (Inact.(<6))”.

`O=C[C@H](Cc1c[nH]cn1)NC[C@@H]1C[C@H]2CCCC[C@@H]2CN1C(=O)c1ccccc1` [CMP262]: the “Inact.(<6)/Act.(>=6)” value is listed as “Inact. (Inact.(<6))”. Next, `O=C(Oc1cncc(Cl)c1)c1ccc(Cl)cc1` [CMP165]: “Act. (Act.(>=6))”.
